Values after ≈ are worked out from the molar mass of the structure shown. Read-outs that look alike come from different tables or passages of the source.

Assay [1] concerns M. tuberculosis ATCC 27294 (H37Rv). The assay is described as follows: MIC by agar proportion method, standard strain. The following applies: Mycobacterium tuberculosis. In kind it is cell-based.
The test system of assay [2] is M. tuberculosis ATCC 35812 (Kurono). The assay is described as follows: MIC by agar proportion method, standard strain. In kind it is cell-based. The following applies: Mycobacterium tuberculosis, ATCC35812.
For assay [3], the system named is M. tuberculosis ATCC 35838 (H37Rv RIF-R). The assay is described as follows: MIC by agar proportion method, standard strain. Conditions: Mycobacterium tuberculosis. Type of assay: cell-based.
The test system of assay [4] is M. tuberculosis ATCC 35822 (H37Rv INH-R). The assay is described as follows: MIC by agar proportion method, standard strain. Type of assay: cell-based. The following applies: Mycobacterium tuberculosis.
Assay [5] concerns M. tuberculosis ATCC 35837 (H37Rv EMB-R). The assay can be described thus: MIC by agar proportion method, standard strain. Type of assay: cell-based. Conditions: Mycobacterium tuberculosis.
In assay [6] the test system is M. tuberculosis ATCC 35820 (H37Rv SM-R). The assay can be described thus: MIC by agar proportion method, standard strain. Type of assay: cell-based. The following applies: Mycobacterium tuberculosis.
Assay [7] has as its system M. tuberculosis ATCC 35828 (H37Rv PZA-R). The assay can be described thus: MIC by agar proportion method, standard strain. In kind it is cell-based. Conditions: Mycobacterium tuberculosis.
The next assay relates to M. africanum ATCC 25420. The assay is described as follows: MIC by agar proportion method, standard strain. Type of assay: cell-based. Conditions: ATCC25420.
The next assay concerns M. bovis ATCC BAA-935. The assay is described as follows: microbe, parasite or virus in culture. In kind it is cell-based. Conditions: Mycobacterium tuberculosis variant bovis, ATCCBAA935.
For another assay, the system named is M. caprae ATCC BAA-824. The assay is described as follows: MIC by agar proportion method, standard strain. Type of assay: cell-based. The following applies: ATCCBAA824.
The next assay deals with M. microti ATCC 11152. The assay can be described thus: MIC by agar proportion method, standard strain. Conditions: ATCC11152. Type of assay: cell-based.
Assay [8] relates to M. pinnipedii ATCC BAA-688. The assay can be described thus: MIC by agar proportion method, standard strain. In kind it is cell-based. The following applies: ATCCBAA688.
A further assay relates to M. tuberculosis Kurono. Type of assay: in vivo. The following applies: in vivo.
Assay [9] concerns the target recombinant M. bovis BCG-derived DprE1 (Mycobacterium tuberculosis, UniProt P9WJF1). The assay is described as follows: biochemical.
The subject of assay [10] is intracellular M. tuberculosis H37Rv. The assay can be described thus: microbe, parasite or virus in culture. In kind it is cell-based.
Assay [11] deals with intracellular M. tuberculosis Kurono. The assay is described as follows: microbe, parasite or virus in culture. Type of assay: cell-based.
Where [12] appears, read: ATCC 27294 (H37Rv), agar proportion method, […], read-out: MIC.
Setting [13] is: ATCC 35812 (Kurono), agar proportion method, read-out: MIC.
Setting [14] is: […], agar proportion method, read-out: MIC.
[15] abbreviates: M. africanum ATCC 25420, agar proportion method, read-out: MIC.
The mark [16] stands for this setting: M. caprae ATCC BAA-824, agar proportion method, read-out: MIC.
Setting [17] is: M. microti ATCC 11152, agar proportion method, read-out: MIC.
Setting [18] is: M. pinnipedii ATCC BAA-688, agar proportion method, read-out: MIC.

Chain of recombinant M. bovis BCG-derived DprE1 (P9WJF1 whole entry): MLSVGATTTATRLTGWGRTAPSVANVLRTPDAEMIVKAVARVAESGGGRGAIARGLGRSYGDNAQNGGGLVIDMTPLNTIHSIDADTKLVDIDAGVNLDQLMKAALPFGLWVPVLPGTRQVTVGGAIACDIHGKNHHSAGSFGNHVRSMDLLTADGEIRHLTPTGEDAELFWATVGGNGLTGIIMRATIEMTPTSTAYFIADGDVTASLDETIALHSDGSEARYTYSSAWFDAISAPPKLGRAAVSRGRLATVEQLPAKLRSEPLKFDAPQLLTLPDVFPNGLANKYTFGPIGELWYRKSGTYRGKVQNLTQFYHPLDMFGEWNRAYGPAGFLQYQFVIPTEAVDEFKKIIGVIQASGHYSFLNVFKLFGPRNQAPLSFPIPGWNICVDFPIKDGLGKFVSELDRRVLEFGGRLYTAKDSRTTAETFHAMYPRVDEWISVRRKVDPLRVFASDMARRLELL

On to `COc1nc2ccc(Br)cc2cc1[C@@H](c1ccccc1)[C@@](O)(CCN(C)C)c1cccc2ccccc12` [BDQ, bedaquiline], for which the MIC in [1] (setting [12]), in [2] (setting [13]), in [3] (setting [14]), in assay [4] (setting [14]), in [5] (setting [14]) and in assay [6] (setting [14]) was 0.063 mg/L (≈ 0.113 µM) each time. Also, the MIC stood at 0.13 mg/L (≈ 0.234 µM) in [7] (setting [14]); 0.25 mg/L (≈ 0.45 µM) with M. africanum ATCC 25420 (setting [15]); 0.13 mg/L (≈ 0.234 µM) in the assay on M. bovis ATCC BAA-935; 0.13 mg/L (≈ 0.234 µM) in the assay on M. caprae ATCC BAA-824 (setting [16]); 0.063 mg/L (≈ 0.113 µM) with M. microti ATCC 11152 (setting [17]); 0.13 mg/L (≈ 0.234 µM) in assay [8] (setting [18]). Moreover, the “lung CFU compared to the vehicle group, single agent” value in the assay on M. tuberculosis Kurono was “significant decrease of lung CFU”.

Take `C[C@H]1COC2(CCN(c3nc(=O)c4cc(C(F)(F)F)cc([N+](=O)[O-])c4s3)CC2)O1` [BTZ043]: in assay [9], the IC50 stood at 0.403 µM.

Consider `C[C@]1(COc2ccc(N3CCC(Oc4ccc(OC(F)(F)F)cc4)CC3)cc2)Cn2cc([N+](=O)[O-])nc2O1` [DMD, delamanid], for which the MIC in assay [1] (setting [12]), in assay [2] (setting [13]), in assay [3] (setting [14]), in assay [4] (setting [14]), in [5] (setting [14]) and in assay [6] (setting [14]) was 0.004 mg/L (≈ 0.00748 µM) in each case. Further, the MIC in [7] (setting [14]) worked out at 0.004 mg/L (≈ 0.00748 µM); in the assay with M. africanum ATCC 25420 (setting [15]), 0.001 mg/L (≈ 0.00187 µM); against M. bovis ATCC BAA-935 it was 0.004 mg/L (≈ 0.00748 µM); in the assay on M. caprae ATCC BAA-824 (setting [16]), 0.002 mg/L (≈ 0.00374 µM); in the assay with M. microti ATCC 11152 (setting [17]), 0.002 mg/L (≈ 0.00374 µM); in assay [8] (setting [18]), 0.002 mg/L (≈ 0.00374 µM). The “lung CFU compared to the vehicle group, single agent” value in the assay with M. tuberculosis Kurono is given as “significant decrease of lung CFU”.

For `NNC(=O)c1ccncc1` [INH, isoniazid], the IC50 in [9] was above 10 µM.

In the case of `C[C@H]1COc2c(N3CCN(C)CC3)c(F)cc3c(=O)c(C(=O)O)cn1c23` [LVX, levofloxacin], the MIC in assay [1] (setting [12]), in [2] (setting [13]), in assay [3] (setting [14]), in assay [4] (setting [14]), in [5] (setting [14]) and in assay [6] (setting [14]) was 0.5 mg/L (≈ 1.38 µM) throughout. In addition, the MIC in assay [7] (setting [14]) came to 0.5 mg/L (≈ 1.38 µM); in the assay with M. africanum ATCC 25420 (setting [15]), 0.25 mg/L (≈ 0.692 µM); with M. bovis ATCC BAA-935 it was 0.25 mg/L (≈ 0.692 µM); with M. caprae ATCC BAA-824 (setting [16]), 0.25 mg/L (≈ 0.692 µM); in the assay with M. microti ATCC 11152 (setting [17]), 0.25 mg/L (≈ 0.692 µM); in assay [8] (setting [18]), 0.25 mg/L (≈ 0.692 µM). In the assay with M. tuberculosis Kurono, the “lung CFU compared to the vehicle group, single agent” value was “significant decrease of lung CFU”.

As for `CC(=O)NC[C@H]1CN(c2ccc(N3CCOCC3)c(F)c2)C(=O)O1` [LZD, linezolid], the MIC in assay [1] is 1 mg/L (≈ 2.96 µM); in assay [2], 1 mg/L (≈ 2.96 µM); in assay [3], 0.5 mg/L (≈ 1.48 µM); in [4] it was 1 mg/L (≈ 2.96 µM); in [5], 0.5 mg/L (≈ 1.48 µM); in [6], 0.5 mg/L (≈ 1.48 µM). Further, the MIC was determined as 1 mg/L (≈ 2.96 µM) in assay [7]; 0.5 mg/L (≈ 1.48 µM) in the assay with M. africanum ATCC 25420; 0.5 mg/L (≈ 1.48 µM) with M. bovis ATCC BAA-935; 0.25 mg/L (≈ 0.741 µM) with M. caprae ATCC BAA-824; 0.5 mg/L (≈ 1.48 µM) with M. microti ATCC 11152; 1 mg/L (≈ 2.96 µM) in assay [8].

On to `COc1c(N2C[C@@H]3CCCN[C@@H]3C2)c(F)cc2c(=O)c(C(=O)O)cn(C3CC3)c12` [MXF, moxifloxacin], for which the MIC amounted to 0.5 mg/L (≈ 1.25 µM) in assay [1] (setting [12]); 0.13 mg/L (≈ 0.324 µM) in assay [2] (setting [13]); 0.25 mg/L (≈ 0.623 µM) in assay [3] (setting [14]); 0.25 mg/L (≈ 0.623 µM) in assay [4] (setting [14]); 0.25 mg/L (≈ 0.623 µM) in assay [5] (setting [14]); 0.5 mg/L (≈ 1.25 µM) in assay [6] (setting [14]). The MIC in assay [7] (setting [14]) was determined as 0.5 mg/L (≈ 1.25 µM); in the assay with M. africanum ATCC 25420 (setting [15]), 0.25 mg/L (≈ 0.623 µM); in the assay on M. bovis ATCC BAA-935, 0.13 mg/L (≈ 0.324 µM); in the assay on M. caprae ATCC BAA-824 (setting [16]) it was 0.063 mg/L (≈ 0.157 µM); in the assay with M. microti ATCC 11152 (setting [17]), 0.063 mg/L (≈ 0.157 µM); in assay [8] (setting [18]), 0.25 mg/L (≈ 0.623 µM).

Take `CO[C@H]1/C=C/O[C@@]2(C)Oc3c(C)c(O)c4c(O)c(c(/C=N/N5CCN(C)CC5)c(O)c4c3C2=O)NC(=O)/C(C)=C\C=C\[C@H](C)[C@H](O)[C@@H](C)[C@@H](O)[C@@H](C)[C@H](OC(C)=O)[C@@H]1C` [RIF, rifampin]: the MIC in [1] is 0.25 mg/L (≈ 0.304 µM); in [2], 0.25 mg/L (≈ 0.304 µM); in assay [3], above 16 mg/L; in assay [4], 0.5 mg/L (≈ 0.608 µM); in assay [5], 0.25 mg/L (≈ 0.304 µM); in [6], 0.25 mg/L (≈ 0.304 µM). Moreover, the MIC in [7] was 1 mg/L (≈ 1.22 µM); in the assay on M. africanum ATCC 25420, 0.25 mg/L (≈ 0.304 µM); against M. bovis ATCC BAA-935, 0.063 mg/L (≈ 0.0766 µM); against M. caprae ATCC BAA-824, 0.13 mg/L (≈ 0.158 µM); in the assay on M. microti ATCC 11152, 0.13 mg/L (≈ 0.158 µM); in assay [8], 0.5 mg/L (≈ 0.608 µM). The “bactericidal activity against intracellular bacilli” value in assay [10] and in assay [11] was “killed the intracellular bacilli” each time. In addition, the IC90 came to 1.15 mg/L (≈ 1.4 µM) in [10] (Mycobacterium tuberculosis, H37RV, THP-1, read-out: 90% inhibitory concentration (IC90)) and 0.565 mg/L (≈ 0.686 µM) in assay [11] (Mycobacterium tuberculosis, THP-1, read-out: 90% inhibitory concentration (IC90)).

Take `[H]/N=C(/N)N[C@H]1[C@H](O)[C@@H](O)[C@H](O[C@@H]2O[C@@H](C)[C@](O)(C=O)[C@H]2O[C@@H]2O[C@@H](CO)[C@H](O)[C@@H](O)[C@@H]2NC)[C@@H](N/C(N)=N\[H])[C@@H]1O` [STR, streptomycin]: the “bactericidal activity against intracellular bacilli” value in assay [10] (H37Rv in THP-1-derived macrophage-like cells, 3 days) is recorded as “no bactericidal activity”; in [11] (Kurono in THP-1-derived macrophage-like cells, 3 days), “no bactericidal activity”.

By IC50 is commonly meant the concentration needed to halve the response being measured.

(Values after article PMC7269503 (Antimicrobial Agents and Chemotherapy, 2020).)
